Test results reported in article PMC11111955, “Safety and efficacy evaluation of halicin as an effective drug for inhibiting intestinal infections” (Frontiers in Pharmacology, 2024).
Values after ≈ are worked out from the molar mass of the structure shown. “Also recorded” adds a separate entry of the source. Where two headings read alike, the source gives them in different places.

Columns and labels:
[1] = tested on: rats; experiment: 90-Day subchronic toxicity assay
[2] = Pharmacokinetics of halicin in rat (oral)
[3] = tested on: C. perfringens (ATCC 13124); type: cell-based, Clostridium perfringens
[4] = tested on: Salmonella typhimurium strains TA97, TA98, TA100, and WP2uvrApKM101; experiment: Ames test, all strains as summarised in the text
[5] = tested on: clinical isolates of C. perfringens strains; type: cell-based, Clostridium perfringens
[6] = tested on: H. parasuis (ATCC 19417); experiment: Minimum inhibitory concentration (MIC); type: cell-based
Description: (§1) The test strains were inoculated on the corresponding solid medium and incubated overnight at 37°C. A single colony was picked from the medium and inoculated into Luria Broth (LB), and then incubated overnight at 37°C with shaking at 220 rpm. The bacterial suspension was diluted to 0.5 McFarland turbidity with Mueller Hinton broth (MHB), and then dilute 100 times for later use. Halicin was added to the 96-well plate, and diluted it to concentrations of 128, 64, 32, 16, 8, 4, 2, 1, 0.5, 0.25, 0.125, and 0 μg/mL by gradient. The 96-well plate was incubated at 37°C for 16 h, followed by observing and recording the results. The MIC was determined as the concentration at which there was no visible colony growth was observed.

[7] = tested on: S. flexneri (CMCC 51572); experiment: Minimum inhibitory concentration (MIC); type: cell-based
Description: as §1

[8] = tested on: Streptococcus suis (ATCC 43765); experiment: Minimum inhibitory concentration (MIC); type: cell-based
Description: as §1

[9] = tested on: Proteus (CMCC (B) 49027); experiment: Minimum inhibitory concentration (MIC); type: cell-based
Description: as §1

[10] = tested on: E. coli (ATCC 25922); experiment: Minimum inhibitory concentration (MIC); type: cell-based, Escherichia coli
Description: as §1

[11] = tested on: clinical isolates of E. coli strains; experiment: MIC against clinical isolates; type: cell-based, Escherichia coli
[12] = tested on: Salmonella (CVCC 3377); experiment: Growth kinetics curve; conditions: 1/2 × to 4 × MIC
[13] = tested on: zebrafish embryos; experiment: Zebrafish embryonic malformation study; type: in vivo; conditions: up to 4 μM; 24, 48 and 72 h after fertilization
Description: For embryonic malformation studies, groups of 20 zebrafish embryos each were treated with halicin. The concentrations of the drug were set at 4, 2, 1, and 0.5 μM, in accordance with established protocols for zebrafish embryo acute toxicity test. Observations were conducted at 24, 48, and 72 h after fertilization using a microscope. The embryonic assessment focused on six specific teratogenic endpoints: pericardial edema, yolk sac edema, cardiac malformations, morphological body shape deformities, tail deformities, and craniofacial anomalies, as well as otolith abnormalities. To minimize the impact of random variability, these experiments were performed in triplicate ([OECD, 1998]).

[14] = tested on: ICR mice; experiment: Acute oral toxicity test in ICR mice
[15] = tested on: B. subtilis (ATCC 66333); experiment: Minimum inhibitory concentration (MIC); type: cell-based, Bacillus subtilis
Description: as §1

[16] = tested on: S. pneumoniae (ATCC 49619); experiment: Minimum inhibitory concentration (MIC); type: cell-based, Streptococcus pneumoniae
Description: as §1

[17] = tested on: Proteus (CMCC (B) 49027); experiment: Growth kinetics curve; type: cell-based; conditions: 1/2 × to 4 × MIC
[18] = tested on: E. coli (ATCC 25922); experiment: Multipassage resistance study (continuous induction); conditions: after multipassage induction
[19] = tested on: Escherichia coli (ATCC 25922); experiment: Growth kinetics curve; type: cell-based

Nc1nnc(Sc2ncc([N+](=O)[O-])s2)s1 [halicin]
water consumption and mental states ([1]; all dosage groups): no significant changes
body weight of female rats compared with the control group ([1]; all halicin treatment groups, 90 days, p > 0.05): no significant difference
mortality ([1]; any experimental group (50.5-201.8 mg/kg), 90 days): No mortality
weight of organs compared with the control group ([1]; end of the experiment, all treatment groups, p > 0.05): no significant difference
maximum safe concentration ([1]; from the safety assessment): 50.5 mg/kg
kidney findings (autopsy, HE sections) ([1]; high dose 201.8 mg/kg, 201.8 mg/kg): slight renal inflammation; also recorded: kidney lesions
body weight of male rats compared with the control group ([1]; high-dose group (201.8 mg/kg), oral, 90 days, p < 0.05): significantly lower
serum ALT and AST levels compared with the control group ([1]; high-dose, p < 0.01): significantly reduced
diet compared with the control group ([1]; low-dose group (50.5 mg/kg), p > 0.05): No significant differences
dosages with good safety and tolerability ([1]; rats, oral, 90 days): below 50.5 mg/kg
AUC0-last ([2]; High dose (50 mg/kg)): 459.58 ± 34.53 ng·h/mL
AUC0-∞ ([2]; High dose (50 mg/kg)): 510.86 ± 46.62 ng·h/mL
Cl/F ([2]; High dose (50 mg/kg)): 983.0528 ± 117.355 mL/min/kg
Cmax ([2]; High dose (50 mg/kg)): 64.25 ± 1.98 ng/mL
MRTlast ([2]; High dose (50 mg/kg)): 5.85 ± 0.13 h
T1/2λz ([2]; High dose (50 mg/kg)): 8.57 ± 0.22 h
Tmax ([2]; High dose (50 mg/kg)): 1.33 ± 1.41 h
Vd/F ([2]; High dose (50 mg/kg)): 828.26908 ± 70.84029 L/kg
λz ([2]; High dose (50 mg/kg)): 0.085 ± 0.0016 h⁻¹
AUC0-last ([2]; Low dose (10 mg/kg)): 318.05 ± 31.27 ng·h/mL
AUC0-∞ ([2]; Low dose (10 mg/kg)): 395.88 ± 42.41 ng·h/mL
Cl/F ([2]; Low dose (10 mg/kg)): 422.673 ± 44.3642 mL/min/kg
Cmax ([2]; Low dose (10 mg/kg)): 40.99 ± 2.37 ng/mL
MRTlast ([2]; Low dose (10 mg/kg)): 7.58 ± 0.41 h
T1/2λz ([2]; Low dose (10 mg/kg)): 10.32 ± 2.22 h
Tmax ([2]; Low dose (10 mg/kg)): 1.33 ± 1.41 h
Vd/F ([2]; Low dose (10 mg/kg)): 375.07455 ± 41.94437 L/kg
λz ([2]; Low dose (10 mg/kg)): 0.068 ± 0.016 h⁻¹
drug concentration in the blood ([2]; at 24 h after drug administration): ≤ 5 ng/mL
absorption and elimination in vivo ([2]; drug metabolism experiments): poorly absorbed and quickly eliminated
MIC [3]: 8 µg/mL (≈ 30.6 µM)
bacterial counts of the four strains ([4]; 22.5 μg/plate, due to antibacterial effect): significantly decreased
mutagenicity in the Ames test ([4]; concentrations below 11.2 μg/plate, with or without S9): non-mutagenic
MIC ([5]; clinical isolate S049, Clostridium perfringens Cp001): 4 µg/mL (≈ 15.3 µM)
MIC ([5]; clinical isolate S050, Clostridium perfringens Cp002): 4 µg/mL (≈ 15.3 µM)
MIC ([5]; clinical isolate S051, Clostridium perfringens Cp003): 4 µg/mL (≈ 15.3 µM)
MIC ([5]; clinical isolate S052, Clostridium perfringens Cp004): 8 µg/mL (≈ 30.6 µM)
MIC ([5]; clinical isolate S053, Clostridium perfringens Cp005): 8 µg/mL (≈ 30.6 µM)
MIC ([5]; clinical isolate S054, Clostridium perfringens Cp006): 8 µg/mL (≈ 30.6 µM)
MIC ([5]; clinical isolate S055, Clostridium perfringens Cp007): 16 µg/mL (≈ 61.2 µM)
MIC ([5]; clinical isolate S056, Clostridium perfringens Cp008): 0.25 µg/mL (≈ 0.957 µM)
MIC ([5]; clinical isolate S057, Clostridium perfringens Cp009): 0.25 µg/mL (≈ 0.957 µM)
MIC ([5]; clinical isolate S058, Clostridium perfringens Cp010): 0.25 µg/mL (≈ 0.957 µM)
MIC [6]: 8 µg/mL (≈ 30.6 µM)
MIC [7]: 8 µg/mL (≈ 30.6 µM)
MIC [8]: 4 µg/mL (≈ 15.3 µM)
MIC [9]: 8 µg/mL (≈ 30.6 µM)
MIC [10]: 8 µg/mL (≈ 30.6 µM)
MIC [11]: 8 µg/mL (≈ 30.6 µM)
MIC ([11]; clinical isolate S015, Escherichia coli 1505): 16 µg/mL (≈ 61.2 µM)
MIC ([11]; clinical isolate S016, Escherichia coli 2101): 16 µg/mL (≈ 61.2 µM)
MIC ([11]; clinical isolate S017, Escherichia coli 1104): 16 µg/mL (≈ 61.2 µM)
MIC ([11]; clinical isolate S018, Escherichia coli 1103): 16 µg/mL (≈ 61.2 µM)
MIC ([11]; clinical isolate S019, Escherichia coli 1102): 16 µg/mL (≈ 61.2 µM)
MIC ([11]; clinical isolate S020, Escherichia coli 1204): 16 µg/mL (≈ 61.2 µM)
MIC ([11]; clinical isolate S021, Escherichia coli 1508): 16 µg/mL (≈ 61.2 µM)
MIC ([11]; clinical isolate S022, Escherichia coli 1302): 16 µg/mL (≈ 61.2 µM)
MIC ([11]; clinical isolate S023, Escherichia coli 1301): 16 µg/mL (≈ 61.2 µM)
MIC ([11]; clinical isolate S024, Escherichia coli 1213): 16 µg/mL (≈ 61.2 µM)
MIC ([11]; clinical isolate S025, Escherichia coli 1111): 8 µg/mL (≈ 30.6 µM)
MIC ([11]; clinical isolate S026, Escherichia coli 1123): 8 µg/mL (≈ 30.6 µM)
MIC ([11]; clinical isolate S034, Escherichia coli 1115): 8 µg/mL (≈ 30.6 µM)
MIC ([11]; clinical isolate S035, Escherichia coli 1114): 8 µg/mL (≈ 30.6 µM)
MIC ([11]; clinical isolate S036, Escherichia coli 1113): 8 µg/mL (≈ 30.6 µM)
MIC ([11]; clinical isolate S037, Escherichia coli 1110): 8 µg/mL (≈ 30.6 µM)
MIC ([11]; clinical isolate S038, Escherichia coli 1108): 8 µg/mL (≈ 30.6 µM)
MIC ([11]; clinical isolate S039, Escherichia coli 1105): 8 µg/mL (≈ 30.6 µM)
MIC ([11]; clinical isolate S040, Escherichia coli 230202): 8 µg/mL (≈ 30.6 µM)
MIC ([11]; clinical isolate S041, Escherichia coli 230203): 8 µg/mL (≈ 30.6 µM)
MIC ([11]; clinical isolate S042, Escherichia coli 230210): 8 µg/mL (≈ 30.6 µM)
MIC ([11]; clinical isolate S043, Escherichia coli 0807): 32 µg/mL (≈ 122 µM)
MIC ([11]; clinical isolate S044, Escherichia coli 1122): 4 µg/mL (≈ 15.3 µM)
MIC ([11]; clinical isolate S045, Escherichia coli 0906): 4 µg/mL (≈ 15.3 µM)
MIC ([11]; clinical isolate S046, Escherichia coli 0813): 4 µg/mL (≈ 15.3 µM)
MIC ([11]; clinical isolate S047, Escherichia coli 230209): 4 µg/mL (≈ 15.3 µM)
MIC ([11]; clinical isolate S048, Escherichia coli 230211): 4 µg/mL (≈ 15.3 µM)
growth in growth kinetics curve assay [12]: completely inhibited
teratogenic effects on the embryos [13]: no significant teratogenicity; also recorded: no any significant teratogenic effects
mortality ([14]; 500 mg/kg oral): none died
survival rate at 7 days ([14]; 1,000 mg/kg oral): 80%
7-day survival rate ([14]; 4,000 mg/kg oral): 10%
LD50 ([14]; ICR mice, oral gavage, 7 days observation): 2018.3 mg/kg
acute toxicity classification ([14]; based on LD50): low-toxicity compound
MIC [15]: 128 µg/mL (≈ 490 µM)
MIC [16]: 0.5 µg/mL (≈ 1.91 µM)
growth in growth kinetics curve assay [17]: completely inhibited
MIC of ECR (E. coli ATCC 25922 resistant strains) [18]: 32 µg/mL
growth in growth kinetics curve assay ([19]; 1/2 × MIC, E. coli (ATCC 25922)): significantly inhibited during the initial 16 h
growth in growth kinetics curve assay ([19]; 4 × MIC, after 20 h): still proliferated significantly
